One substance from US20230212208A1, “Colour Tunable Luminescent Bidentate Platinum (II) Complexes for Probing Mismatch DNA” (THE UNIVERSITY OF HONG KONG, priority 2019, published 2023) can be followed below.

Where two headings read alike, the source gives them in different places.

In assay [1] the test system is hairpin CC mismatched DNA with different adjacent base pairs. To be noted: Pt(II) complex to DNA ratio 1.0. The text has this: Especially, the 5′- . . . […] GCA . . . -3′ (SEQ ID NO: 24), 5′- . . . GCC . . . -3′ (SEQ ID NO: 25), GCG . . . -3′ (SEQ ID NO: 26) and 5′- . . .
Assay [2] has as its system cognate matched DNA (CG match, SEQ ID NO: 3). To be noted: 20 μM in Tris buffer pH 7.1, 1-fold matched DNA. Here is the method:
The emission spectra for detection of CC mismatched DNA and matched DNA were determined (FIGS. 2A and 2B).

Assay [3] concerns AA hairpin mismatched DNA (SEQ ID NO: 7). To be noted: 20 μM in Tris buffer, λex=410 nm, AA hairpin mismatch. The text has this: (§1) The emission increased around 3-fold for CA (SEQ ID NO: 5) and TC hairpin mismatched DNA (SEQ ID NO: 6), and 2-fold for AA hairpin mismatched DNA (SEQ ID NO: 7) (FIG. 5A).
In assay [4] the test system is CA hairpin mismatched DNA (SEQ ID NO: 5). To be noted: 20 μM in Tris buffer, λex=410 nm, CA hairpin mismatch.
Text: as §1

The subject of assay [5] is TC hairpin mismatched DNA (SEQ ID NO: 6). The note with it: 20 μM in Tris buffer, λex=410 nm, TC hairpin mismatch.
Text: as §1

Take “Pt(II)(benzo[h]quinolone-1-benzyl-3-butylimidazolium bromide [PtCN2]”: the “emission intensity at 497 nm over matched DNA” value in assay [1] (CC mismatch 5'-ACC-3' (SEQ ID NO: 17) vs matched DNA), in assay [1] (CC mismatch 5'-GCA-3' (SEQ ID NO: 24) vs matched DNA), in assay [1] (CC mismatch 5'-GCC-3' (SEQ ID NO: 25) vs matched DNA) and in assay [1] (CC mismatch 5'-GCG-3' (SEQ ID NO: 26) vs matched DNA) was 5 fold in each case. The “emission response at 497 nm, higher than matched DNA” value in assay [1] (CC mismatch 5'-GCT-3' (SEQ ID NO: 27) vs matched DNA (SEQ ID NO: 32)) worked out at 6 fold. Besides, in assay [2], the “emission enhancement at high-energy emission” value is “no significant emission enhancement”. Moreover, the entries for the “emission increase at high-energy fingerprint spectrum” value in assay [3], in assay [4] and in assay [5] were roughly 2 fold, “around 3 fold” and “around 3 fold”, respectively.
